Source: patent publication US20110045101A1, “FUNGICIDAL SUBSTITUTED AZOLES” (E.I. Du Pont De Nemours and Company, priority 2009, published 2011)
Marks after values point to notes of the source that are not given here.

Experiments:
Type in all cases: in vivo
Conditions in all cases: 100 = 100% disease control
[1] = test system: Botrytis cinerea; assay: Test C: tomato Botrytis on tomato seedlings, sprayed the day before inoculation, visual disease rating
Method in brief: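 Each compound is first taken up in acetone at 3% of the final volume and then brought to the desired ppm in a 50:50 acetone–water mix with 250 ppm surfactant (polyhydric alcohol esters). Tomato seedlings receive the suspension to run-off, normally at 200 ppm, occasionally 40 ppm.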

[2] = test system: Alternaria solani; assay: Test D: tomato early blight, sprayed the day before inoculation, visual disease rating
Method in brief: (§1)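 Test rate was 200 ppm, sprayed to run-off and equal to 500 g/ha, or 40 ppm where marked. The compound was first taken up in acetone at 3% of final volume and suspended in acetone/purified water (50/50) containing 250 ppm Trem® 014.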

[3] = test system: Septoria nodorum; assay: Test F: wheat glume blotch on wheat seedlings, sprayed the day before inoculation, visual disease rating
Method in brief: as §1

[4] = test system: Septoria tritici; assay: Test G: wheat leaf blotch on wheat seedlings, sprayed the day before inoculation, visual disease rating
Method in brief: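 Compounds dissolved in acetone (3% of final volume), then suspended in 50/50 acetone/water with 250 ppm Trem® 014 and sprayed to run-off on seedlings at 200 ppm (≈500 g/ha) or 40 ppm where marked. Inoculation with spores followed next day; visual rating after 48 h saturated at 24° C plus 19 days at 20° C.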

[5] = test system: Puccinia recondita f. sp. tritici; assay: Test H: wheat leaf rust, test suspension sprayed after inoculation of wheat seedlings, visual disease rating
Method in brief: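 Wheat seedlings inoculated with P. recondita spores, held 24 h saturated at 20 °C, then 2 days in growth chamber at 20 °C; compound suspension (acetone/water with Trem 014) sprayed to run-off afterwards. Rated visually; 200 ppm (≈500 g/ha) unless marked *, which denotes 40 ppm.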

[6] = test system: Puccinia recondita f. sp. tritici; assay: Test I: wheat leaf rust on wheat seedlings, sprayed the day before inoculation, visual disease rating
Method in brief: as §1

[7] = test system: Erysiphe graminis f. sp. tritici; assay: Test J: wheat powdery mildew on wheat seedlings, sprayed the day before inoculation, visual disease rating
Method in brief: as §1

[8] = 200 ppm, 0 = no control relative to controls
[9] = 40 ppm (marked *), 0 = no control

Structure (SMILES) | Test C disease control rating [1, 8] [%] | Test D disease control rating [2, 8] [%] | Test F disease control rating [3, 8] [%] | Test G disease control rating [4, 8] [%] | Test H disease control rating [5, 8] [%] | Test I disease control rating [6, 8] [%] | Test J disease control rating [7, 8] [%] | other results
COc1ccc(F)c(-c2c(Cl)nc(Br)n2-c2ccc(F)cc2)c1F [compound 314] | 99 | 100 | 100 | 93 | 32 | 100 | 100 | 
COc1cc(F)c(-c2c(Cl)ncn2Cc2ccc(C)cc2)c(F)c1 [compound 274] |  |  |  |  |  |  |  | Test C disease control rating ([1]; 200 ppm, 0 = no control): 100%; Test D disease control rating ([2]; 200 ppm, 0 = no control): 100%; Test F disease control rating ([3]; 200 ppm, 0 = no control): 51%; Test G disease control rating ([4]; 200 ppm, 0 = no control): 94%; Test H disease control rating ([5]; 200 ppm, 0 = no control): 48%; Test I disease control rating ([6]; 200 ppm, 0 = no control): 99%; Test J disease control rating ([7]; 200 ppm, 0 = no control): 77%
Fc1ccc(F)c(-c2c(Br)nc(Cl)n2-c2ccc(Cl)cc2)c1Cl [compound 385] |  |  |  |  |  |  |  | Test C disease control rating [1, 9]: 99* %; Test D disease control rating [2, 9]: 99* %; Test F disease control rating [3, 9]: 0* %; Test G disease control rating [4, 9]: 95* %; Test H disease control rating [5, 9]: 0* %; Test I disease control rating [6, 9]: 95* %; Test J disease control rating [7, 9]: 99* %
CCOc1ccc(F)c(-c2c(Cl)nc(C)n2-c2ccc(Cl)cc2)c1F [compound 684] | 100 | 100 | 100 | 99 | 53 | 99 | 100 | 
Fc1cc(F)c(-c2c(Cl)ncn2-c2ccc(OC(F)(F)F)cc2)c(F)c1 [compound 587] | 25 | 80 | 0 | 97 | 7 | 0 | 97 | 
COc1cc(F)c(-c2c(Cl)nc(C)n2-c2cccc(OC(F)F)c2)c(F)c1 [compound 588] | 100 | 100 | 100 | 97 | 100 | 100 | 100 | 
Fc1cc(F)c(-c2c(Cl)ncn2-c2cccc(OC(F)F)c2)c(F)c1 [compound 584] | 99 | 99 | 0 | 98 | 0 | 100 | 99 | 
COc1ccc(F)c(-c2c(Br)ncn2-c2ccc(C)cc2)c1F [compound 473] | 99 | 100 | 0 | 97 | 0 | 100 | 100 | 
COc1cc(F)c(-c2c(Br)ncn2-c2ccc(F)cc2)c(F)c1 [compound 506] | 100 | 100 | 92 | 99 | 78 | 100 | 99 | 
Cn1c(-c2c(Br)nc(Br)n2-c2ccc(Cl)cc2)nc(Br)c1Br [compound 372] | 99 | 0 | 0 | 91 | 0 | 74 | 0 | 
CN(C)c1ncn(Cc2cccc(Cl)c2)c1-c1ccc(Cl)cc1 [compound 273] |  |  |  |  |  |  |  | Test C disease control rating ([1]; 200 ppm, 0 = no control): 63%; Test D disease control rating ([2]; 200 ppm, 0 = no control): 0%; Test F disease control rating ([3]; 200 ppm, 0 = no control): 0%; Test G disease control rating ([4]; 200 ppm, 0 = no control): 13%; Test H disease control rating ([5]; 200 ppm, 0 = no control): 46%; Test I disease control rating ([6]; 200 ppm, 0 = no control): 41%; Test J disease control rating ([7]; 200 ppm, 0 = no control): 0%
Cc1ccc(-n2c(C)nc(Cl)c2-c2c(F)cc(OC(F)F)cc2F)cc1 [compound 631] | 99 | 99 | 0 | 100 | 40 | 99 | 100 | 
COc1cc(F)c(-n2cnc(C)c2-c2ccc(Cl)cc2)c(F)c1 [compound 688] |  |  |  |  |  |  |  | Test C disease control rating ([1]; 40 ppm (marked *)): 100* %; Test D disease control rating ([2]; 40 ppm (marked *)): 33* %; Test F disease control rating ([3]; 40 ppm (marked *)): 0* %; Test G disease control rating ([4]; 40 ppm (marked *)): 97* %; Test H disease control rating ([5]; 40 ppm (marked *)): 8* %; Test I disease control rating ([6]; 40 ppm (marked *)): 0* %; Test J disease control rating ([7]; 40 ppm (marked *)): 78* %
Cc1nc(Cl)c(-c2c(F)ccc(C#N)c2F)n1-c1ccc(Cl)cc1 [Compound 430, 3-[4-chloro-1-(4-chlorophenyl)-2-methyl-1H-imidazol-5-yl]-2,4-difluorobenzonitrile] |  |  |  |  |  |  |  | pest or weed control at 200 ppm ([1]; Botrytis cinerea, 120 h, 200 ppm, 0 = no control relative to controls): 100%; pest or weed control at 200 ppm ([2]; Alternaria solani, 168 h, 200 ppm, 0 = no control relative to controls): 100%; pest or weed control at 200 ppm ([3]; Parastagonospora nodorum, 264 h, 200 ppm, 0 = no control relative to controls): 100%; pest or weed control at 200 ppm ([4]; Zymoseptoria tritici, 504 h, 200 ppm, 0 = no control relative to controls): 100%; pest or weed control at 200 ppm ([5]; Puccinia recondita, 96 h, 200 ppm, 0 = no control relative to controls): 0%; pest or weed control at 200 ppm ([6]; Puccinia recondita, 168 h, 200 ppm, 0 = no control relative to controls): 100%; pest or weed control at 200 ppm ([7]; Blumeria graminis, 168 h, 200 ppm, 0 = no control relative to controls): 100%
Cc1ncc(Cc2c(F)cc(F)cc2F)n1-c1c(Cl)cccc1Cl [compound 536] | 89 | 68 | 0 | 90 | 37 | 98 | 98 | 
COc1cc(F)c(-n2c(Br)nc(C)c2-c2ccc(C)cc2)c(F)c1 [compound 525] |  |  |  |  |  |  |  | Test C disease control rating ([1]; 40 ppm (marked *)): 100* %; Test D disease control rating ([2]; 40 ppm (marked *)): 100* %; Test F disease control rating ([3]; 40 ppm (marked *)): 80* %; Test G disease control rating ([4]; 40 ppm (marked *)): 98* %; Test H disease control rating ([5]; 40 ppm (marked *)): 68* %; Test I disease control rating ([6]; 40 ppm (marked *)): 100* %; Test J disease control rating ([7]; 40 ppm (marked *)): 98* %
Fc1ccc(-n2cnc(Br)c2-c2c(F)ccc(F)c2Cl)cc1 [compound 508] | 100 | 100 | 0 | 94 | 78 | 99 | 99 | 
COc1cc(F)c(-c2c(N(C)C)ncn2Cc2ccc(Cl)cc2)c(F)c1 [compound 265] |  |  |  |  |  |  |  | Test C disease control rating ([1]; 200 ppm, 0 = no control): 97%; Test D disease control rating ([2]; 200 ppm, 0 = no control): 0%; Test F disease control rating ([3]; 200 ppm, 0 = no control): 60%; Test G disease control rating ([4]; 200 ppm, 0 = no control): 86%; Test H disease control rating ([5]; 200 ppm, 0 = no control): 32%; Test I disease control rating ([6]; 200 ppm, 0 = no control): 61%; Test J disease control rating ([7]; 200 ppm, 0 = no control): 0%
